Values of other authors, collected in patent publication US12156858B2, “Pharmaceutical compositions comprising levodopa, a dopamine decarboxylase inhibitor and a COMT inhibitor and method of administration thereof” (InTrance Medical Systems Inc., priority 2014, dated 2024).

Details: intake of levodopa alone

N[C@@H](Cc1ccc(O)c(O)c1)C(=O)O [Levodopa, (−)-L-α-amino-β-(3,4-dihydroxybenzene) propanoic acid]
share metabolized to dopamine before levodopa reaches the brain: more than 90%
